Consider ten compounds from patent US20030199540A1, “Fluoroalkyoxybenzylamino derivatives of nitrogen containing heterocycles” (priority 1991, published 2003).

`CCOc1ccc(OC(F)(F)F)cc1CN[C@H]1CCCN[C@H]1c1ccccc1.Cl`: the melting point is > 275 °C (dec.).

Compound `CC(=O)Nc1ccc(OCC(F)(F)F)c(CN[C@H]2CCCN[C@H]2c2ccccc2)c1.Cl` showed a melting point of over 270 °C.

As to `CC(C)c1ccc(OC(F)F)c(CN[C@H]2CCCN[C@H]2c2ccccc2)c1.Cl`, the melting point is 245 to 247 °C (dec.).

`CC(C)Oc1ccc(OC(F)(F)F)cc1CN[C@H]1CCCN[C@H]1c1ccccc1.Cl`: the melting point is 245 to 246 °C (dec.).

As for `Cl.FC(F)Oc1ccc(OC(F)F)c(CN[C@H]2CCCN[C@H]2c2ccccc2)c1`, the melting point lay in the range of 238 to 239 °C.

As for `CC(C)(C)c1ccc(OC(F)F)c(CN[C@H]2CCCN[C@H]2c2ccccc2)c1.Cl`, the melting point was 263 to 264 °C (dec.).

In turn, `CC(C)c1ccc(OCC(F)(F)F)c(CN[C@H]2CCCN[C@H]2c2ccccc2)c1.Cl` had a melting point of over 280 °C.

`Cc1ccc(OC(F)F)c(CN[C@H]2CCCN[C@H]2c2ccccc2)c1.Cl` came in with a melting point of over 275 °C.

In turn, `CC(C)(C)c1ccc(OC(F)(F)F)c(CN[C@H]2CCCN[C@H]2c2ccccc2)c1.Cl` came in with a melting point of 262 to 264 °C.

For the compound `Cl.FC(F)(F)Oc1ccccc1CN[C@H]1CCCN[C@H]1c1ccccc1`, the melting point is 231 to 233 °C.

The term melting point denotes the temperature of the solid-liquid transition.
